Results as given in publication PMC2361176, “Inhibitory effects of retinoic acid metabolism blocking agents (RAMBAs) on the growth of human prostate cancer cells and LNCaP prostate tumour xenografts in SCID mice” (British Journal of Cancer, 2006).

Legend:
[1] = test system: human breast T47D cancer cells; design: method as in Van Heusden et al, 2002; conditions: 1 μM, ref Van Heusden et al, 2002; cited from earlier work
LNCaP cells [2] = assay: TUNEL assay of apoptosis in LNCaP cells; assay type: cell-based, human; conditions: 1 or 5 μM, 6 days
Method: A total of 4000 LNCaP cells were plated on each well of an eight-well Lab-Tek II® chamber slide (Nalge Nunc International, Naperville, IL, USA). The LNCaP cells were then treated with either 1 or 5 μM of ATRA or RAMBA for 6 days. Cells were then fixed in 4% paraformaldehyde solution in dH2O. The cells were then processed and stained with FITC (fluorescein isothiocyanate) according to kit instructions (In situ cell death detection kit, AP, Roche Diagnostics Corp., Indianapolis, IN, USA). The FITC-stained cells are then mounted with VectorShield® mounting medium for fluorescence with DAPI (4′,6-diamidine-2′-phenylindole dihydrochloride) nuclear stain (Vector Laboratories, Inc., Burlingame, CA, USA) and covered with ApopTag® plastic coverslips (Intergen Company, Purchase, NY, USA). The slides were then examined under fluorescence microscopy (Eclipse E400, Nikon, Inc., Melville, NY, USA) and counted using SPOT Advance® 3.5 software (Diagnostic Instruments, Inc., Sterling Heights, MI, USA).

Bcl-2 = assay: Western-blot analysis of Bcl-2 in LNCaP cells; assay type: cell-based, human; conditions: data not shown
Method: The Western-blot protocol described for cytokeratins 8/18 was followed with some exceptions. Cell lysates (50 μg) were separated on a 15% SDS–PAGE gel. All washing was performed using TBS containing 1% Tween 20 (TBS-T). Blocking was performed using 5% milk in TBS-T. Incubations were performed using rabbit monoclonal IgG antibody to Bad and Bcl-2 (1 : 1000), as well as horseradish peroxidase-linked anti-rabbit IgG antibodies (1 : 2000) (Cell Signaling Technology, Beverly, MA, USA).

LNCaP cells [3] = assay: Cell-cycle analysis (propidium iodide, FACScan); assay type: cell-based, human; conditions: 1 μM, 6 days
Method: LNCaP cells were treated with 1 or 5 μM of ATRA or each of the RAMBAs for 6 days. The cells were trypsinised and washed twice in PBS (Life Technologies, Grand Island, NY, USA). The cells were fixed by adding 70% ethanol and stored at −20°C until staining. The cells were washed twice in PBS. A volume of 1 ml of a propidium iodide (PI) solution (50 μg ml^−1 in PBS) and 500 μl of an RNase stock solution (100 μg ml^−1) were added to the cells and incubated for 1 h in the dark. Approximately 10^4 stained cells were then analysed by flow cytometry (Becton Dickenson FACScan, Franklin Lakes, NJ, USA). The percentages of cells in G0/G1, S, and G2/M phases of the cell cycle as well as percentage of apoptotic cells (sub G0/G1) were determined using MODFIT LT software (Verity Software House, San Jose, CA, USA). The percentages of cells in G0/G1, S, and G2/M phases of the cell cycle were obtained from diploid cells in the sample and the percentage of apoptotic cells (sub G0/G1) was obtained from total cells minus the debris.

**Q.** Which “enhancement of the antiproliferative activity of ATRA” value [1] does the source give for `C[C@@H]([C@H](c1ccc(Nc2nc3ccccc3s2)cc1)n1ccnc1)N(C)C` [Compound R116010] here?
**A.** threefold

**Q.** Which “induction of apoptosis (TUNEL)” value (LNCaP cells [2]) does the source give for `CC1=C(/C=C/C(C)=C/C=C/C(C)=C/C(=O)Nc2ccc(O)cc2)C(C)(C)CCC1` [Compound 4-HPR, reference compound] here?
**A.** concentration-dependent induction of apoptosis

**Q.** What about the “expression of Bcl-2” value (Bcl-2) of the same molecule?
**A.** did not effect

**Q.** What about the “Sub-G1 (%)” value (LNCaP cells [3]; apoptotic cells, control 9.02) of the same molecule?
**A.** 7.52%

**Q.** What about the “G2/M (%)” value (LNCaP cells [3]; control 2.20) of the same molecule?
**A.** 12.03%

**Q.** And the “S (%)” value (LNCaP cells [3]; control 15.01)?
**A.** 9.18%

**Q.** And the “G0/G1 (%)” value (LNCaP cells [3]; control 82.78)?
**A.** 79.53%
